According to PubChem BioAssay AID652241 (Broad Institute, 2013):
Results filed as inconclusive are left out. The source made the active and inactive calls.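 The calls were made as follows: active = fitted curve reaches activity 50 in the expected rising direction at or below the top valid tested dose; inconclusive = no clear call, values can overlap the other calls; inactive = activity in the wrong direction, and the rest.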 Square brackets hold non-standard residues; d marks the D form. Peptide text beside a SMILES is read from it. ξ: configuration not given here. Ac5c = NC1(C(=O)O)CCCC1; ξP = O=C(O)C1CCCN1

The compounds below were run against Virion infectivity factor (Human immunodeficiency virus type 1 group M subtype B (isolate BH10)) + Virion infectivity factor (Human immunodeficiency virus type 1 group M subtype B (isolate BRU/LAI)) + Virion infectivity factor (Human immunodeficiency virus type 1 group M subtype B (isolate PCV12)) + Virion infectivity factor (Human immunodeficiency virus type 1 group M subtype B (isolate HXB2)) (UniProt P69720+P69721+P69722+P69723) (assay: dose-dependent disruption of HIV Vif self-association – imaging, HEK293T, cherry-picks, dose response (AID 652241;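 also: imaged cell signal that rises when Vif self-association is disrupted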)). Conditions: HEK293T Vif multimerization imaging, 24 h.
Sequence of Virion infectivity factor (Human immunodeficiency virus type 1 group M subtype B (isolate BH10)) + Virion infectivity factor (Human immunodeficiency virus type 1 group M subtype B (isolate BRU/LAI)) + Virion infectivity factor (Human immunodeficiency virus type 1 group M subtype B (isolate PCV12)) + Virion infectivity factor (Human immunodeficiency virus type 1 group M subtype B (isolate HXB2)) (P69720 whole entry, looked up): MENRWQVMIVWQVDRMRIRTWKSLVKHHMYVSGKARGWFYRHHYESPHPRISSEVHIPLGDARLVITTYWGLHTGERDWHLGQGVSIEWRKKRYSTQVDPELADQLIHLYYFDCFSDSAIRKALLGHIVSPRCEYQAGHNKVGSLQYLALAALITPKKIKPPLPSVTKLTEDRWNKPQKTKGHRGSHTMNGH
Sequence of Virion infectivity factor (Human immunodeficiency virus type 1 group M subtype B (isolate BH10)) + Virion infectivity factor (Human immunodeficiency virus type 1 group M subtype B (isolate BRU/LAI)) + Virion infectivity factor (Human immunodeficiency virus type 1 group M subtype B (isolate PCV12)) + Virion infectivity factor (Human immunodeficiency virus type 1 group M subtype B (isolate HXB2)) (P69721 whole entry, looked up): as the sequence (P69720 whole entry, looked up) above
Sequence of Virion infectivity factor (Human immunodeficiency virus type 1 group M subtype B (isolate BH10)) + Virion infectivity factor (Human immunodeficiency virus type 1 group M subtype B (isolate BRU/LAI)) + Virion infectivity factor (Human immunodeficiency virus type 1 group M subtype B (isolate PCV12)) + Virion infectivity factor (Human immunodeficiency virus type 1 group M subtype B (isolate HXB2)) (P69722 whole entry, looked up): as the sequence (P69720 whole entry, looked up) above
Sequence of Virion infectivity factor (Human immunodeficiency virus type 1 group M subtype B (isolate BH10)) + Virion infectivity factor (Human immunodeficiency virus type 1 group M subtype B (isolate BRU/LAI)) + Virion infectivity factor (Human immunodeficiency virus type 1 group M subtype B (isolate PCV12)) + Virion infectivity factor (Human immunodeficiency virus type 1 group M subtype B (isolate HXB2)) (P69723 whole entry, looked up): as the sequence (P69720 whole entry, looked up) above

| SMILES | AC50 |
| --- | --- |
| FC(F)(F)c1nnc2c3ccccc3c(Cl)nn12 | 12.5 µM |
| COc1ccc(S(=O)(=O)Nc2cc3c(C(C)=O)c(C)oc3c3ccccc23)cc1 | 9.23 µM |
| Cc1cc(NC(=O)NC2(C(F)(F)F)Oc3ccc(Cl)cc3O2)no1 (configuration not stated) | 7.12 µM |
| O=C(Nc1ccc(-c2nc3ccc(NC(=O)c4cccs4)cc3[nH]2)cc1)c1cccs1 | 3.89 µM |
| Cc1cc(NC(=O)CSc2nc3c(sc4ccccc43)c(=O)n2CCCN2CCOCC2)n[nH]1 | 7.05 µM |
| O=C(COc1ccc(-n2cnnn2)cc1)Nc1cc(Cl)cc(Cl)c1 | 12.1 µM |
| COc1cc(C2c3cc4c(cc3CC3COC(=O)C32)OCO4)cc(OC)c1OC (configuration not stated) | 9.81 µM |
| COc1ccc(NC(=O)Cn2ncc(Cl)c(Cl)c2=O)cc1S(=O)(=O)N1CCOCC1 | > 19.5 µM (inactive) |
| CCOC(=O)N1CCN(c2c(NCc3ccc(Cl)cc3)c(=O)c2=O)CC1 | > 19.5 µM (inactive) |
| Cc1ccc(CNC(=O)c2cccc3c2C(=O)c2ccc(N4CCC(C)CC4)cc2S3(=O)=O)cc1 | 14.4 µM |
| CC(=O)Nc1ccc(S(=O)(=O)N2c3ccccc3C(C)=CC2(C)C)cc1 | > 19.5 µM (inactive) |
| Cc1ccc(CCC(=O)Nc2ncc(Cc3cc(Cl)ccc3Cl)s2)o1 | 2.02 µM |
| COc1cccc(NC(=O)NC2(C(F)(F)F)Oc3ccccc3O2)c1 | > 19.5 µM (inactive) |
| COc1cc2ccccc2cc1C(=O)Nc1ccc(Cl)cn1 | 13 µM |
| O=C(NCc1ccccc1C(F)(F)F)c1cccc2c1C(=O)c1ccc(N3CCCCC3)cc1S2(=O)=O | 14.1 µM |
| Cc1ccnc(NC(=O)CCCOc2cc(=O)n(C)c3ccccc23)c1 | 1.79 µM |

Same assay, conditions: HEK293T Vif multimerization imaging, 24 h; at 2.1 µM (top of the series)

| SMILES | activity, higher = inhibition |
| --- | --- |
| Cc1ccc(/C=C2/CNC/C(=C/c3ccc(C)cc3)C2=O)cc1 | inactive |

Same assay, conditions: HEK293T Vif multimerization imaging, 24 h; at 6.8 µM (top of the series)

| SMILES | activity, higher = inhibition |
| --- | --- |
| COc1ccc(OCCN2CCC(C(=O)NC(c3ccccn3)c3ccccc3OC)CC2)cc1 (configuration not stated) | inactive |
| Oc1[nH]c(=S)sc1/C=C1\C(c2ccccc2)=Nc2ccccc21 | inactive |
| O=C(Nc1ccc2oc(-c3ccc4ccccc4c3)nc2c1)c1cccs1 | inactive |

Same assay, conditions: HEK293T Vif multimerization imaging, 24 h; at 19.5 µM (top of the series)

| SMILES | activity, higher = inhibition |
| --- | --- |
| C[C@@H]1CN([C@H](C)CO)C(=O)CCCn2cc(nn2)CO[C@H]1CN(C)C(=O)c1ccccc1 | inactive |
| COCCNCC(=O)Nc1nc(C)cs1 | inactive |
| COc1cc(C(C)=O)ccc1OCC(=O)NCC1(N2CCCCC2)CCCCC1 | inactive |
| COc1ccc(CN(C(=O)Cn2nnc(-c3ccc(C)o3)n2)C(C(=O)NCC2CCCO2)c2ccco2)cc1 (configuration not stated) | inactive |
| O=C(CN(C(=O)c1csnn1)c1ccc(F)cc1)NCc1ccc2c(c1)OCO2 | inactive |
| N#CC(C(=O)NCCc1ccccc1)c1nc2ccccc2nc1N1CCOCC1 (configuration not stated) | inactive |
| Cc1cccc(C)c1NC(=O)COc1ccc2c(C)c(Cc3ccccc3)c(=O)oc2c1C | inactive |
| COc1ccc(-c2cc(C(=O)Nc3ccc4c(c3)OCO4)no2)cc1 | inactive |
| Cc1nn(C)cc1CN(C)Cc1ccc(OCC(O)CN2CCCCC2)cc1 (configuration not stated) | inactive |
| Cc1ccc(S(=O)(=O)c2nc(-c3ccccc3Cl)oc2N(C)C2CCN(C)CC2)cc1 | inactive |
| O=C(CCN1CCOCC1)Nc1ccc(Cl)cc1 | inactive |
| CCOC(=O)C1=C(C)NC(=O)NC1 | inactive |
| COc1c2occc2c(OC)c2c(=O)cc(C)oc12 | inactive |
| Cc1ccc(-n2nnc3c(=O)n(CC(=O)OCc4ccccc4)cnc32)cc1 | inactive |
| CC(=O)Nc1cc(NC(=O)C2C3C=CC(C3)C2C(=O)O)ccc1Cl (configuration not stated) | inactive |
| COc1ccccc1-c1cccc2nccn12 | inactive |
| COc1ccccc1Nc1nnc(C)c(=O)[nH]1 | inactive |
| COc1ccc(CC(NC(C)=O)C(=O)NC2CCN(C(=O)c3ccccc3F)CC2)cc1 (configuration not stated) | inactive |
| OC(CNCc1ccccc1Cl)COc1ccc(F)cc1 (configuration not stated) | inactive |
| CCOC(=O)C1(Cc2cccc(OC)c2)CCN(CCO)CC1 | inactive |
| CCOc1ccc2c(C)c(C(=O)O)oc2c1OCC | inactive |

| SMILES | activity, higher = inhibition |
| --- | --- |
| CC(C)CC(NC(=O)C1CCCCC1)C(=O)N1CCC2(CC1)OCCO2 (configuration not stated) | inactive |
| C=CCN1C(=O)/C(=C/c2ccc(-c3ccc(F)cc3)o2)SC1=S | inactive |
| COc1cccc(N2CCN(S(=O)(=O)c3cc4c(cc3C)N(C)CCO4)CC2)c1 | inactive |
| Cc1ccc(-c2nn3c(C)nnc3c3ccccc23)cc1S(=O)(=O)NCc1ccccc1 | inactive |
| O=C(CCCCn1ccc(=O)[nH]c1=O)Nc1ccc(O)c(C(=O)O)c1 | inactive |
| COc1ccc([C@H]2CC(=O)C=C(c3cc4ccccc4s3)C2)cc1 | inactive |
| Cc1c(NC(=O)c2cc3ccccc3oc2=O)c(=O)n(-c2ccccc2)n1C | inactive |
| Cc1ccc(CNCCCSc2ncccn2)cc1 | inactive |
| O=c1[nH]c(=O)n(Cc2ccco2)c2c1C(C(F)(F)F)(C(F)(F)F)N=C(c1ccco1)N2 | inactive |
| CCOC(=O)C1CCCN1C(=O)C1(NC(C)=O)CCCC1 (configuration not stated) (Ac-[Ac5c]-[ξP]-OEt) | inactive |
| O=S(=O)(Nc1nc2ccccc2nc1NCc1ccco1)c1ccc(Cl)cc1 | inactive |
| Cc1cc(OCC(C)C)ccc1/C(O)=C1/C(=O)C(=O)N(Cc2cccnc2)C1c1ccncc1 (configuration not stated) | inactive |
| O=C(CSc1ncccn1)NC(=O)Nc1ccc2c(c1)OCCO2 | inactive |
| CCn1c(CC(=O)Nc2ccccc2)nnc1SCC(=O)Nc1nnc(C)s1 | inactive |
| CCCOCCOC(=O)c1[nH]c2c(c1C)C(=O)CC(c1cc(OC)ccc1OC)C2 (configuration not stated) | inactive |
| CC(=O)Nc1ccc(C2(c3ccc(NC(C)=O)cc3)NC(=O)c3ccccc32)cc1 | inactive |
| Nc1nc(-c2ccc3ccccc3c2)cs1 | inactive |
| COc1cc(OC)cc(C(=O)NC(C(=O)Nc2ccc3c(c2)OCO3)C(C)C)c1 (configuration not stated) | inactive |
| Cc1ccc(NC(=O)/C=C/C(=O)O)c(NC(=O)c2ccccc2)c1 | inactive |
| CC(C)c1ccc(NC(=O)N2CCCC2C(=O)Nc2ccc(-n3cnnn3)cc2)cc1 (configuration not stated) | inactive |
| O=C(c1cc(-c2ccccc2O)on1)N1CCCCCC1 | inactive |
